Assay results: patent US8383785B2, “Anti-bacterial activity of 9-hydroxy derivatives of 6,11-bicyclolides” (Enanta Pharmaceuticals, Inc., priority 2008, dated 2013)

How the values were obtained:
[1] = tested on: H. influenzae strain 33929; test: MIC by micro-dilution method, H. influenzae strain 33929; type: cell-based, Haemophilus influenzae; conditions: compounds of the invention (scaffold drawing 61, 9-hydroxy); 24 hours, 35+/-2° C.
Procedure: (§1) Susceptibility tests can be used to quantitatively measure the in vitro activity of an antimicrobial agent against a given bacterial isolate. Compounds are tested for in vitro antibacterial activity by a micro-dilution method. Minimal Inhibitory Concentration (MIC) is determined in 96 well microtiter plates utilizing the appropriate broth medium for the observed bacterial isolates. Antimicrobial agents are serially diluted (2-fold) in DMSO to produce a concentration range from about 64 μg/ml to about 0.03 μg/ml. The diluted compounds (2 μl/well) are then transferred into sterile, uninoculated medium (0.2 mL) by use of a 96 fixed tip-pipetting station. The inoculum for each bacterial strain is standardized to approximately 5×10^5 CFU/mL by optical comparison to a 0.5 McFarland turbidity standard. The plates are inoculated with 10 μl/well of adjusted bacterial inoculum. The 96 well plates are covered and incubated at 35+/−2° C. for 24 hours in ambient air environment. Following incubation, plate wells are visually examined by Optical Density measurement for the presence of growth (turbidity). The lowest concentration of an antimicrobial agent at which no visible growth occurs is defined as the MIC.
(§2) All in vitro testing follows the guidelines described in the Approved Standards M7-A7 protocol, published by the Clinical Laboratory Standards Institute (CLSI).
(§3) Table II below provides MIC data for compounds of the invention and related species from U.S. Pat. No. 6,878,691 and US Published Application No. 2009/0118506, each of which is incorporated herein by reference. The values in the table are minimum inhibition concentration (MIC) and are expressed as ug/mL.

[2] = tested on: H. influenzae strain 49247; test: MIC by micro-dilution method, H. influenzae strain 49247; type: cell-based, Haemophilus influenzae; conditions: compounds of the invention (scaffold drawing 61, 9-hydroxy); 24 hours, 35+/-2° C.
Procedure: as §1, §2, §3

SMILES | H. influenzae MIC strain 33929 [1] [µg/mL] | H. influenzae MIC strain 49247 [2] [µg/mL]
CC[C@H]1OC(=O)[C@H](C)C(=O)[C@H](C)[C@@H](O[C@@H]2O[C@H](C)C[C@H](N(C)C)[C@H]2O)[C@@]2(C)C[C@@H](C)[C@H](O)[C@H](C)C(OCC(=NOCc3csc(-c4cccc(N)n4)n3)CO2)[C@]1(C)O [Compound 9] | 1 | 1
CCC1OC(=O)C(C)(F)C(=O)C(C)C(OC2OC(C)CC(N(C)C)C2O)C2(C)CC(C)C(O)C(C)C(OCC(=NOCc3csc(-c4cccc(N)n4)n3)CO2)C1(C)O (mixture of isomers) [Compound 17] | 1 | 1
CC[C@H]1OC(=O)[C@@](C)(F)C(=O)[C@H](C)[C@@H](O[C@@H]2O[C@H](C)C[C@H](N(C)C)[C@H]2O)[C@@]2(C)C[C@@H](C)[C@H](O)[C@H](C)C(OCC(=NOCc3cnc(-c4cccc(N)n4)s3)CO2)[C@]1(C)O [Compound 12] | 2 | 1
CCC1OC(=O)C(C)(F)C(=O)C(C)C(OC2OC(C)CC(N(C)C)C2O)C2(C)CC(C)C(O)C(C)C(OCC(=NOCc3ccc(-c4nccs4)cn3)CO2)C1(C)O (mixture of isomers) [Compound 16] | 2 | –
CC[C@H]1OC(=O)[C@H](C)C(=O)[C@H](C)[C@@H](O[C@@H]2O[C@H](C)C[C@H](N(C)C)[C@H]2O)[C@@]2(C)C[C@@H](C)[C@H](O)[C@H](C)C(OCC(=NOCc3ccc(-n4ccc(N)n4)cn3)CO2)[C@]1(C)O [Compound 5] | 2 | 2
CC[C@H]1OC(=O)[C@H](C)C(=O)[C@H](C)[C@@H](O[C@@H]2O[C@H](C)C[C@H](N(C)C)[C@H]2O)[C@@]2(C)C[C@@H](C)[C@H](O)[C@H](C)C(OCC(=NOCc3ccc(-c4ccno4)nc3)CO2)[C@]1(C)O [Compound 4] | 1 | 1
CC[C@H]1OC(=O)[C@H](C)C(=O)[C@H](C)[C@@H](O[C@@H]2O[C@H](C)C[C@H](N(C)C)[C@H]2O)[C@@]2(C)C[C@@H](C)[C@H](O)[C@H](C)C(OCC(=NOCc3ncc(-c4cccc(N)n4)s3)CO2)[C@]1(C)O [Compound 8] | 2 | 1
CCC1OC(=O)C(C)(F)C(=O)C(C)C(OC2OC(C)CC(N(C)C)C2O)C2(C)CC(C)C(O)C(C)C(OCC(=NOCc3coc(-c4cccc(N)n4)n3)CO2)C1(C)O (mixture of isomers) [Compound 14] | 2 | 1
CC[C@H]1OC(=O)[C@H](C)C(=O)[C@H](C)[C@@H](O[C@@H]2O[C@H](C)C[C@H](N(C)C)[C@H]2O)[C@@]2(C)C[C@@H](C)[C@H](O)[C@H](C)C(OCC(=NOCc3ccc(-c4nc(N)cs4)cn3)CO2)[C@]1(C)O [Compound 3] | 4 | 2
CCC1OC(=O)C(C)(F)C(=O)C(C)C(OC2OC(C)CC(N(C)C)C2O)C2(C)CC(C)C(O)C(C)C(OCC(=NOCc3ccc(-c4ccno4)nc3)CO2)C1(C)O (mixture of isomers) [Compound 13] | 2 | 1
CC[C@H]1OC(=O)[C@H](C)C(=O)[C@H](C)[C@@H](O[C@@H]2O[C@H](C)C[C@H](N(C)C)[C@H]2O)[C@@]2(C)C[C@@H](C)[C@H](O)[C@H](C)C(OCC(=NOCc3cccc(-c4cccc(N)n4)n3)CO2)[C@]1(C)O [Compound 6] | 1 | 1
CC[C@H]1OC(=O)[C@@](C)(F)C(=O)[C@H](C)[C@@H](O[C@@H]2O[C@H](C)C[C@H](N(C)C)[C@H]2O)[C@@]2(C)C[C@@H](C)[C@H](O)[C@H](C)C(OCC(=NOCc3ncc(-c4cccc(N)n4)s3)CO2)[C@]1(C)O [Compound 11] | 1 | 1
CCC1OC(=O)C(C)(F)C(=O)C(C)C(OC2OC(C)CC(N(C)C)C2O)C2(C)CC(C)C(O)C(C)C(OCC(=NOCc3ccc(-c4nc(N)cs4)nc3)CO2)C1(C)O (mixture of isomers) [Compound 18] | 2 | 1
CC[C@H]1OC(=O)[C@H](C)C(=O)[C@H](C)[C@@H](O[C@@H]2O[C@H](C)C[C@H](N(C)C)[C@H]2O)[C@@]2(C)C[C@@H](C)[C@H](O)[C@H](C)C(OCC(=NOCc3ccc(-n4ccc(N)n4)nc3)CO2)[C@]1(C)O [Compound 7] | 1 | 1
CC[C@H]1OC(=O)[C@H](C)C(=O)[C@H](C)[C@@H](O[C@@H]2O[C@H](C)C[C@H](N(C)C)[C@H]2O)[C@@]2(C)C[C@@H](C)[C@H](O)[C@H](C)C(OCC(=NOCc3ccc(-c4nc(N)ns4)cn3)CO2)[C@]1(C)O [Compound 2] | 1 | 1
CCC1OC(=O)C(C)(F)C(=O)C(C)C(OC2OC(C)CC(N(C)C)C2O)C2(C)CC(C)C(O)C(C)C(OCC(=NOCc3ccc(-c4nc(N)cs4)cc3)CO2)C1(C)O (mixture of isomers) [Compound 15] | 4 | 4
CC[C@H]1OC(=O)[C@@](C)(F)C(=O)[C@H](C)[C@@H](O[C@@H]2O[C@H](C)C[C@H](N(C)C)[C@H]2O)[C@@]2(C)C[C@@H](C)[C@H](O)[C@H](C)C(OCC(=NOCc3ccc(-c4nc(N)cs4)cn3)CO2)[C@]1(C)O [Compound 10] | 4 | 1
